# Where “and” joins values, the source holds several entries; their conditions need not be identical. Identical values can stand only once.
# Key:
# [1] = test system: C57BL/6 mice; test: Bleomycin‐induced lung fibrosis, therapeutic model 1 (compounds from a week after bleomycin); format: in vivo
# Description: To examine therapeutic efficacy of DWN12088, all experiments were conducted following the international guidelines on the ethical use of experimental animals and approved by the Institutional Animal Care and Use Committee of Daewoong Pharmaceutical (IACUC‐21‐014). C57BL/6 mice (7–8‐week‐old, male, obtained from Orient Bio) were anesthetized with Zoletil and injected intratracheally with 100 μl bleomycin (2 units/kg) (Merck, B8416) to induce lung fibrosis. A group of disease‐free mice (“untreated”) were injected with PBS instead of bleomycin. After a week, mice treated with bleomycin were randomized to (i) vehicle (saline), (ii) HF 0.05 mg/kg, (iii) HF 0.1 mg/kg, and (iv) DWN12088 10 mg/kg groups (n = 5 for each group) according to their body weight. The drugs were orally administered once daily for 2 weeks, and then the outcome was analyzed. For the experiments testing the effect of the compounds 2 weeks after bleomycin challenge, the experiment was approved by IACUC of Daewoong Pharmaceutical (IACUC‐22‐009). The experimental procedures were performed following the methods described previously, with the exception that the compounds were administered 2 weeks after bleomycin challenge. The experiments were conducted as non‐blind tests.
# Mice were anesthetized with Zoletil for 10 min, and a portable mouse pulse oximeter (Veterinary Pulse Oximeter, Berry Electronic) was placed on each mouse's body. The measurements were continued to allow the recording of 3 min of a stable signal.
# The collagen contents of lung tissues were measured using Sircol™ soluble collagen assay (Biocolor Ltd., S1000) following the manufacturer's instructions. Briefly, the right lung lobes were homogenized, and collagen was solubilized in 0.5 M acetic acid. Tissue extracts were incubated with Sirius red dye, and the absorbance was determined at 540 nm using a spectrophotometer. The amount of collagen was expressed relative to the wet weight of the tissues.
# The lung tissues were fixed in paraformaldehyde and embedded in paraffin. The paraffin‐embedded blocks were sectioned at 4 μm and then mounted onto glass slides. After deparaffinization and rehydration, the slides were fixed with Bouin's solution (Sigma Aldrich, HT10132‐1L) for 1 h. Then, the slides were incubated with hematoxylin (Sigma Aldrich, MHS16‐500ML), Biebrich Scarlet (Sigma Aldrich, B‐6008) and acid fuchsin (Sigma Aldrich, A‐3908), phosphomolybdic (DAEJUNG, 6531‐4105) and phosphotungstic acid (DAEJUNG, 6539‐4105), aniline blue (DAEJUNG, 1087‐4125), and then 1% (v/v) acetic acid (DUKSAN, UN2789). After dehydration, the slides were mounted onto cover slips and scanned using slide scanner (3D HISTECH, Pannoramic MIDI). Fibrotic area of the images was quantified by using Image J plugin, color deconvolution 2.
# [2] = test system: WI‐26 VA4 cells stably expressing PARS1 FA/EA/RL mutant; test: Collagen ELISA in cells stably expressing PARS1 mutant; settings: for Collagen level, average: average of 4 experiments; for Collagen level, single replicates: replicates of Experiments #1-#4
# [3] = Two‐week repeated‐dose toxicity study, HF versus DWN12088; format: in vivo, mice; settings: male, ICR (CrljOri: CD1), mouse, in vivo; oral once daily for 2 weeks, ICR mice
# Description: (§1) To compare the in vivo toxicity of HF and DWN12088, all experiments were conducted following the international guidelines on the ethical use of experimental animals and approved by the Institutional Animal Care and Use Committee of KNOTUS (KNOTUS IACUC 21‐KE‐250 and KNOTUS IACUC 21‐KE‐359). ICR (CrljOri: CD1) mice (7‐week‐old, male, obtained from Koatech) were randomized (n = 6 for each group) and then orally administered with the indicated amounts of HF or DWN12088 once daily for 2 weeks. In the high‐dose group, the dose of DWN12088 was reduced from 120 mg/kg to 90 mg/kg from day 6. […] Body weight was measured at day 1, 2, 3, 4, 5, 8, 14, and 15.
# (§2) After administering the drugs for 2 weeks, mice were fasted overnight and anesthetized with isoflurane. Blood samples were collected in EDTA‐coated tubes, and the following parameters were determined using a hematology analyzer (ADVIA 2120, SIEMENS, USA); red blood cell, platelet count, hematocrit, white blood cell, red cell distribution width, hemoglobin concentration distribution width, hemoglobin concentration, neutrophil, mean corpuscular volume, lymphocyte, mean cell hemoglobin, monocyte, mean cell hemoglobin concentration, eosinophil, mean platelet volume, basophil, reticulocytes, and large unstained cells.
# (§3) For clinical chemistry, the remaining blood samples were incubated in a vacutainer tube with clot activator and then centrifuged to prepare serum. The following parameters were measured in the serum using a chemistry analyzer (7180, Hitachi, Japan) and electrolyte analyzer (AVL 9180, Roche, Switzerland); aspartate aminotransferase, albumin, alanine aminotransferase, albumin/globulin ratio, alkaline phosphatase, blood urea nitrogen, creatine phosphokinase, creatinine, total bilirubin, inorganic phosphorus, glucose, calcium, total cholesterol, sodium, triglyceride, potassium, total protein, and chloride.
# (§4) After blood collection, blood was drained by incising the abdominal aorta and posterior vena cava, and all organs of the skin, brain, thoracic cavity, and abdominal cavity were observed. The relative weights of the lung, spleen, liver, heart, kidney, thymus, and testes were calculated by dividing the weight of each organ by the body weight. The experiments were conducted as non‐blind test.
# [4] = test system: ICR (CrljOri: CD1) mice; test: as above; format: in vivo
# Description: as §1, §2, §3, §4
# [5] = test system: C57BL/6 mice; test: Bleomycin‐induced lung fibrosis, therapeutic model 2 (compounds from 2 weeks after bleomycin); format: in vivo; settings: model 2, drug administration from day 14
# Description: To examine therapeutic efficacy of DWN12088, all experiments were conducted following the international guidelines on the ethical use of experimental animals and approved by the Institutional Animal Care and Use Committee of Daewoong Pharmaceutical (IACUC‐21‐014). C57BL/6 mice (7–8‐week‐old, male, obtained from Orient Bio) were anesthetized with Zoletil and injected intratracheally with 100 μl bleomycin (2 units/kg) (Merck, B8416) to induce lung fibrosis. A group of disease‐free mice (“untreated”) were injected with PBS instead of bleomycin. After a week, mice treated with bleomycin were randomized to (i) vehicle (saline), (ii) HF 0.05 mg/kg, (iii) HF 0.1 mg/kg, and (iv) DWN12088 10 mg/kg groups (n = 5 for each group) according to their body weight. The drugs were orally administered once daily for 2 weeks, and then the outcome was analyzed. For the experiments testing the effect of the compounds 2 weeks after bleomycin challenge, the experiment was approved by IACUC of Daewoong Pharmaceutical (IACUC‐22‐009). […]
# The collagen contents of lung tissues were measured using Sircol™ soluble collagen assay (Biocolor Ltd., S1000) following the manufacturer's instructions. […] Tissue extracts were incubated with Sirius red dye, and the absorbance was determined at 540 nm using a spectrophotometer. […]
# [6] = WI-26 VA4 Flag-PARS1 FA/EA/RL, 30 nM
# [7] = WI-26 VA4 Flag-PARS1 FA/EA/RL, 100 nM
# [8] = WI-26 VA4 Flag-PARS1 FA/EA/RL, 300 nM
# [9] = WI-26 VA4 Flag-PARS1 FA/EA/RL, 1000 nM
# [10] = WI-26 VA4 Flag-PARS1 FA/EA/RL, 3000 nM
# [11] = WI-26 VA4 Flag-PARS1 FA/EA/RL, 10000 nM
# [12] = WI-26 VA4 Flag-PARS1 FA/EA/RL, 30000 nM
# [13] = WI-26 VA4 Flag-PARS1 FA/EA/RL, 100000 nM
# [14] = WI-26 VA4 Flag-PARS1 FA/EA/RL, 300000 nM
# [15] = 120 ➔ 90 mg/kg (from day 6) oral once daily
compound,measurement,setting,value
O[C@H]1CCCN[C@@H]1CCCn1cnc2c(Cl)c(Cl)ccc21 [DWN12088],"efficacy (SpO2, BALF total cell count, collagen contents)","[1]; 10 mg/kg oral once a day, 2 weeks, versus nintedanib 60 mg/kg and pirfenidone 200 mg/kg (Fig EV4D–F)",comparable with nintedanib and pirfenidone
same,"BALF total cell count, average","[1]; BLM +, 10 mg/kg",8.46 x105 cells
same,"BALF total cell count, single animal","[1]; BLM +, 10 mg/kg",9.8 x105 cells and 8.9 x105 cells and 6.4 x105 cells and 7.5 x105 cells and 9.7 x105 cells
same,"Collagen contents, average","[1]; BLM +, 10 mg/kg",213.8 μg/right lung
same,"Collagen contents, single animal","[1]; BLM +, 10 mg/kg",175 μg/right lung and 275 μg/right lung and 198 μg/right lung and 165 μg/right lung and 256 μg/right lung
same,"Fibrotic area, average","[1]; BLM +, 10 mg/kg",173.8 % of control
same,"Fibrotic area, single animal","[1]; BLM +, 10 mg/kg",230.8 % of control and 181.2 % of control and 123.5 % of control and 151.5 % of control and 182.0 % of control
same,"SpO2, average","[1]; BLM +, 10 mg/kg",81.0%
same,"SpO2, single animal","[1]; BLM +, 10 mg/kg",87% and 81% and 88% and 72% and 77%
same,"collagen deposition, Masson's trichrome staining",[1]; lung tissue (Fig 1H and I),decreased collagen deposition in the interstitial spaces
same,fibrotic properties,"[1]; model 1, drug administration from day 7",significantly reduced fibrotic properties
same,in vivo effective dose of DWN12088 relative to that of HF,"[1]; mouse, in vivo",about 100 times
same,IC50,"[2]; Homo sapiens, WI26VA4, read-out: IC50, collagen level",1490 nM
same,CC50/collagen IC50,[2]; PARS1 FA/EA/RL cells,7.88
same,Relative (CC50)/(collagen IC50),"[2]; PARS1 FA/EA/RL cells, relative to EV",0.63
same,"Collagen level, average",[2]; [6],96.80 % of control
same,"Collagen level, single replicates",[2]; [6],101.27 % of control and 106.03 % of control and 102.09 % of control and 97.52 % of control and 107.38 % of control and 87.30 % of control and 97.03 % of control and 100.22 % of control and 82.11 % of control and 93.95 % of control and 95.06 % of control and 91.64 % of control
same,"Collagen level, average",[2]; [7],91.15 % of control
same,"Collagen level, single replicates",[2]; [7],92.43 % of control and 98.06 % of control and 99.31 % of control and 91.83 % of control and 92.72 % of control and 85.46 % of control and 90.73 % of control (2×) and 82.66 % of control and 81.56 % of control and 88.43 % of control and 99.91 % of control
same,"Collagen level, average",[2]; [8],79.61 % of control
same,"Collagen level, single replicates",[2]; [8],87.41 % of control and 88.18 % of control and 78.49 % of control and 71.44 % of control and 76.98 % of control and 80.63 % of control and 81.90 % of control and 76.13 % of control and 73.84 % of control and 86.07 % of control and 78.20 % of control and 75.99 % of control
same,"Collagen level, average",[2]; [9],62.53 % of control
same,"Collagen level, single replicates",[2]; [9],72.91 % of control and 64.62 % of control and 69.50 % of control and 60.49 % of control and 52.43 % of control and 63.48 % of control and 72.89 % of control and 52.77 % of control and 57.64 % of control and 59.18 % of control and 66.74 % of control and 57.76 % of control
same,"Collagen level, average",[2]; [10],26.56 % of control
same,"Collagen level, single replicates",[2]; [10],25.97 % of control and 27.35 % of control and 25.49 % of control and 26.93 % of control and 30.39 % of control and 26.86 % of control and 25.02 % of control and 29.58 % of control and 24.14 % of control and 24.80 % of control and 25.63 % of control and 26.57 % of control
same,"Collagen level, average",[2]; [11],4.37 % of control
same,"Collagen level, single replicates",[2]; [11],4.38 % of control and 3.58 % of control and 3.17 % of control and 5.34 % of control and 4.53 % of control and 5.67 % of control and 3.18 % of control and 3.93 % of control and 4.88 % of control and 4.67 % of control and 4.47 % of control and 4.59 % of control
same,"Collagen level, average",[2]; [12],2.20 % of control
same,"Collagen level, single replicates",[2]; [12],2.07 % of control and 2.38 % of control and 2.98 % of control and 3.14 % of control and 2.40 % of control and 2.09 % of control and 1.49 % of control and 1.46 % of control and 1.88 % of control (2×) and 2.96 % of control and 1.71 % of control
same,"Collagen level, average",[2]; [13],1.94 % of control
same,"Collagen level, single replicates",[2]; [13],2.11 % of control and 2.24 % of control and 1.83 % of control and 2.90 % of control and 1.40 % of control and 1.89 % of control and 1.44 % of control and 1.33 % of control and 1.75 % of control and 1.90 % of control and 2.31 % of control and 2.15 % of control
same,"Collagen level, average",[2]; [14],1.36 % of control
same,"Collagen level, single replicates",[2]; [14],1.67 % of control and 0.92 % of control and 0.84 % of control and 1.94 % of control
same,"HillSlope, collagen level","[2]; WI-26 VA4 Flag-PARS1 FA/EA/RL, four-parameter fit",-1.331
same,"LogIC50, collagen level","[2]; WI-26 VA4 Flag-PARS1 FA/EA/RL, log of concentration in nM, four-parameter fit",3.174
same,NOAEL at 2 weeks,[3],60 mg/kg
same,Hematology ↓,"[4]; 60 mg/kg oral once daily, 2 weeks","HGB, MCHC"
same,Clinical chemistry ↑,[4]; [15],"AST, ALT, ALP, GLU, BUN, CRE, IP, K^+"
same,Clinical chemistry ↓,[4]; [15],"TP, TCHO"
same,Clinical signs,[4]; [15],"Inanimation, hypothermia"
same,Hematology ↓,[4]; [15],"RBC, HGB, MCHC"
same,Necropsy finding,[4]; [15],• Pale liver (1/6) • Thymus atrophy (3/6) • Pale and large kidney (1/6) • Dark red contents in the stomach (1/6)
same,Organ weight ↑,[4]; [15],"Kidney, liver"
same,Organ weight ↓,[4]; [15],"Spleen, thymus"
same,Mortality: Terminal sacrifice,"[4]; 120 ➔ 90 mg/kg (from day 6) oral once daily, days 2, 5, 6 and 12","Terminal sacrifice: 4/6 (Each animal on days 2, 5, 6, and 12)"
same,reduction in body weight,[4]; all the tested doses,did not show weight loss
same,NOAEL of DWN12088 relative to that of HF,"[4]; male, ICR (CrljOri: CD1), mouse, in vivo, 2 weeks",more than 160 times
same,fibrotic properties,[5],less apparent

# — article PMC10331583, “Control of fibrosis with enhanced safety via asymmetric inhibition of prolyl‐tRNA synthetase 1” (EMBO Molecular Medicine, 2023)
